According to the supplement of paper PMC11061612:

What was measured:
[1] = test system: EW-11 (Ewing's Sarcoma); assay: combination Emax (second highest fraction inhibited in the dose matrix, 72 h); higher = more inhibition; extreme values may be limits of the assay
Method in brief: (§1)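 Cell lines grown in DMEM/F12 or RPMI with 10% FBS were plated in 1536-well plates and held 24 hours at 37°C, 5% CO2 before 72 hours of exposure to two-drug dose matrices, with DMSO typically at 0.2%. CellTiter-Glo 2.0 luminescence gave viability, which was converted to inhibition. Vehicle wells were set to 0 and blank wells to 1. Combination Emax is the second-highest inhibition in the matrix, and Bliss excess is the observed combination effect minus the expected EA + EB − EA·EB, where EA and EB are the single-agent effects.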

[2] = test system: SNU-16 (Gastric Carcinoma); assay: as above
Method in brief: as §1

[3] = test system: HeLa (Cervical Carcinoma); assay: as above
Method in brief: as §1

[4] = test system: MHH-CALL-2 (B-Lymphoblastic Leukemia); assay: as above
Method in brief: as §1

[5] = test system: NCI-H2052 (Mesothelioma); assay: as above
Method in brief: as §1

[6] = test system: BE2-M17 (Neuroblastoma); assay: as above
Method in brief: as §1

[7] = test system: HuCCT1 (Biliary Tract Carcinoma); assay: as above
Method in brief: as §1

[8] = test system: OE21 (Esophageal Squamous Cell Carcinoma); assay: as above
Method in brief: as §1

[9] = test system: LCLC-97TM1 (Non-Small Cell Lung Carcinoma); assay: as above
Method in brief: as §1

[10] = test system: L-428 (Hodgkin's Lymphoma); assay: as above
Method in brief: as §1

[11] = test system: NUGC-4 (Gastric Carcinoma); assay: as above
Method in brief: as §1

[12] = test system: LNZTA3WT4 (Low Grade Glioma); assay: as above
Method in brief: as §1

[13] = test system: CAL-72 (Osteosarcoma); assay: as above
Method in brief: as §1

[14] = test system: FTC-133 (Thyroid Gland Carcinoma); assay: as above
Method in brief: as §1

[15] = test system: SW1573 (Lung Adenocarcinoma); assay: as above
Method in brief: as §1

[16] = test system: YAPC (Pancreatic Carcinoma); assay: Bliss excess, mean over the matrix (fraction); higher = more synergy
Method in brief: as §1

[17] = test system: Hs-746T (Gastric Carcinoma); assay: as above
Method in brief: as §1

[18] = test system: LNZTA3WT4 (Low Grade Glioma); assay: as above
Method in brief: as §1

[19] = test system: FTC-133 (Thyroid Gland Carcinoma); assay: as above
Method in brief: as §1

[20] = test system: Detroit562 (Head and Neck Carcinoma); assay: as above
Method in brief: as §1
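Throughout, for Bliss excess, mean over the matrix: after 72 h of two-drug dosing.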

Structure (SMILES) | combination Emax [1] | combination Emax [2] | combination Emax [3] | combination Emax [4] | combination Emax [5] | combination Emax [6] | combination Emax [7] | combination Emax [8] | combination Emax [9] | combination Emax [10] | combination Emax [11] | combination Emax [12] | combination Emax [13] | combination Emax [14] | combination Emax [15] | Bliss excess [16] | Bliss excess [17] | Bliss excess [18] | Bliss excess [19] | Bliss excess [20]
Cn1cnc2c(F)c(Nc3ccc(Br)cc3Cl)c(C(=O)NOCCO)cc21 [Selumetinib] + CCN(CCO)CCCOc1ccc2c(Nc3cc(CC(=O)Nc4cccc(F)c4)[nH]n3)ncnc2c1 [AZD2811] (first compound max 10 µM, 7x7, partner max 1 µM) | 0.199 | 0.561 | 0.171 | 0.888 | 0.232 | 0.644 | 0.525 | 0.441 | 0.647 | 0.235 | 0.472 | 0.226 | 0.181 | 0.415 | 0.251 | -0.0654 | -0.0051 | -0.0094 | -0.03 | 0.0685
NC1(C(=O)N[C@@H](CCO)c2ccc(Cl)cc2)CCN(c2ncnc3[nH]ccc23)CC1 [Capivasertib] + CC(=O)c1c(C)c2cnc(Nc3ccc(N4CCNCC4)cn3)nc2n(C2CCCC2)c1=O [Palbociclib] (first compound max 10 µM, 7x7, partner max 10 µM) | 0.496 | 0.623 | 0.196 | 0.216 | 0.419 | 0.463 | 0.43 | 0.714 | 0.583 | 0.436 | 0.305 | 0.562 | 0.481 | 0.565 | 0.382 | 0.0043 | -0.0322 | 0.0103 | -0.011 | 0.0585
CC(=O)c1c(C)c2cnc(Nc3ccc(N4CCNCC4)cn3)nc2n(C2CCCC2)c1=O [Palbociclib] + Cc1c2c(nn1C)CSCc1cc(n(C)n1)CSc1cc(c3ccccc3c1)OCCCc1c(C(=O)O)n(C)c3c-2c(Cl)ccc13 [AZD5991] (first compound max 10 µM, 7x7, partner max 1 µM) | 0.605 | 0.973 | 0.39 | 0.998 | 0.304 | 0.409 | 0.32 | 0.393 | 0.263 | 0.353 | 0.252 | 0.411 | 0.441 | 0.18 | 0.2 | -0.0037 | -0.0293 | 0.0064 | -0.0515 | -0.0131
Cc1c2c(nn1C)CSCc1cc(n(C)n1)CSc1cc(c3ccccc3c1)OCCCc1c(C(=O)O)n(C)c3c-2c(Cl)ccc13 [AZD5991] + CN(C)CCCOc1ccc(-c2ccc3ncc4c(c3c2)n(C2CCOCC2)c(=O)n4C)cn1 [AZD0156] (first compound max 1 µM, 7x7, partner max 1 µM) | 0.803 | 0.974 | 0.46 | 0.985 | 0.285 | 0.875 | 0.286 | 0.345 | 0.286 | 0.23 | 0.238 | 0.227 | 0.328 | 0.719 | 0.214 | 0.0081 | 0.0008 | -0.0135 | -0.0105 | -0.0251
COc1cccc(OCCCN)c1-c1cc(Nc2cnc(C#N)cn2)n[nH]1 [Prexasertib] + CCc1c2c(nc3ccc(O)cc13)-c1cc3c(c(=O)n1C2)COC(=O)[C@]3(O)CC [SN-38] (first compound max 1 µM, 7x7, partner max 0.3 µM) | 0.749 | 1 | 0.865 | 1 | 0.853 | 0.999 | 0.875 | 0.813 | 1 | 0.979 | 0.484 | 0.949 | 0.949 | 1 | 0.925 | -0.0776 | -0.0006 | 0.0266 | -0.0278 | 0.055
COc1nnc2ccc(N3CCC(c4ccc(OCCN5CCN(C)C(=O)[C@H]5C)cc4)CC3)nn12 [AZD5153] + Cn1cnc2c(F)c(Nc3ccc(Br)cc3Cl)c(C(=O)NOCCO)cc21 [Selumetinib] (first compound max 1 µM, 7x7, partner max 10 µM) | 0.424 | 0.902 | 0.411 | 0.432 | 0.403 | 0.825 | 0.826 | 0.861 | 0.848 | 0.784 | 0.831 | 0.383 | 0.389 | 0.592 | 0.577 | 0.0121 | -0.0227 | -0.143 | -0.0539 | -0.0316
COc1nnc2ccc(N3CCC(c4ccc(OCCN5CCN(C)C(=O)[C@H]5C)cc4)CC3)nn12 [AZD5153] + C[C@@H]1COCCN1C2=NC(=NC(=C2)C3(CC3)[S@](=N)(=O)C)C4=C5C=CNC5=NC=C4 [AZD6738] (first compound max 1 µM, 7x7, partner max 10 µM) | 0.692 | 0.98 | 0.589 | 0.932 | 0.209 | 0.92 | 0.666 | 0.858 | 0.87 | 0.929 | 0.652 | 0.809 | 0.784 | 0.782 | 0.557 | 0.0088 | 0.0429 | 0.0648 | 0.0856 | -0.0241
NC1(C(=O)N[C@@H](CCO)c2ccc(Cl)cc2)CCN(c2ncnc3[nH]ccc23)CC1 [Capivasertib] + Cn1cnc2c(F)c(Nc3ccc(Br)cc3Cl)c(C(=O)NOCCO)cc21 [Selumetinib] (first compound max 10 µM, 7x7, partner max 10 µM) | 0.453 | 0.461 | 0.253 | 0.582 | 0.443 | 0.654 | 0.717 | 0.924 | 0.849 | 0.126 | 0.329 | 0.445 | 0.305 | 0.608 | 0.362 | 0.03 | 0.0736 | -0.0292 | 0.0156 | 0.0993
COc1nnc2ccc(N3CCC(c4ccc(OCCN5CCN(C)C(=O)[C@H]5C)cc4)CC3)nn12 [AZD5153] + C=CCn1c(=O)c2cnc(Nc3ccc(N4CCN(C)CC4)cc3)nc2n1-c1cccc(C(C)(C)O)n1 [AZD1775] (first compound max 1 µM, partner max 1 µM) | 0.572 | 0.871 | 0.54 | 0.742 | 0.407 | 0.964 | 0.767 | 0.742 | 0.848 | 0.918 | 0.641 | 0.643 | 0.647 | 0.837 | 0.544 | -0.0403 | -0.0556 | -0.0356 | -0.0099 | -0.0535
Cc1c2c(nn1C)CSCc1cc(n(C)n1)CSc1cc(c3ccccc3c1)OCCCc1c(C(=O)O)n(C)c3c-2c(Cl)ccc13 [AZD5991] + C[C@@H](Nc1cc(F)cc(F)c1)c1cc(C(=O)N(C)C)cc2c(=O)cc(N3CCOCC3)oc12 [AZD8186] (first compound max 1 µM, 7x7, partner max 3 µM) | 0.906 | 0.986 | 0.614 | 0.989 | 0.374 | 0.92 | 0.4 | 0.397 | 0.221 | 0.12 | 0.374 | 0.232 | 0.365 | 0.667 | 0.288 | -0.0159 | 0.0106 | 0.0055 | -0.0065 | 0.0065
Cn1cnc2c(F)c(Nc3ccc(Br)cc3Cl)c(C(=O)NOCCO)cc21 [Selumetinib] + CC(C)n1c(=O)n(C)c2cnc3cc(F)c(-c4ccc(OCCCN5CCCCC5)nc4)cc3c21 [AZD1390] (first compound max 10 µM, 7x7, partner max 0.3 µM) | 0.103 | 0.36 | 0.0672 | 0.256 | 0.193 | 0.508 | 0.517 | 0.386 | 0.528 | 0.0975 | 0.481 | 0.226 | 0.165 | 0.166 | 0 | -0.033 | -0.0257 | -0.0324 | -0.034 | 0.003
CC1(C)CCC(CN2CCN(c3ccc(C(=O)NS(=O)(=O)c4ccc(NCC5CCOCC5)c([N+](=O)[O-])c4)c(Oc4cnc5[nH]ccc5c4)c3)CC2)=C(c2ccc(Cl)cc2)C1 [Venetoclax] + C1CN(CCC1(C(=O)N[C@@H](CCO)C2=CC=C(C=C2)Cl)N)C3=NC=NC4=C3C=CN4 [Capivasertib] (first compound max 1 µM, 7x7, partner max 3 µM) | 0.711 | 0.189 | 0.22 | 0.106 | 0.329 | 0.254 | 0.24 | 0.48 | 0.298 | 0.0426 | 0.121 | 0.508 | 0.554 | 0.358 | 0.257 | -0.0461 | -0.0705 | -0.0297 | -0.0473 | -0.0191
